19 compounds from patent publication US10464922B2, “Metalloenzyme inhibitor compounds” (NQP 1598 LTD., priority 2015, dated 2019) can be followed below.

In brackets after ≈: the same amount, converted by molar mass. Read-outs that look alike come from different tables or passages of the source. Some results are limits rather than exact numbers.

The test system of one test is C. albicans (ATCC 90028). Kind of test: Minimum inhibitory concentration, in vitro broth microdilution assay (CLSI M27-A2). In kind it is cell-based, Candida albicans. Conditions: for MIC: Candida albicans, ATCC90028, 48 h, read-out: Candida albicans MIC. A digest of the protocol:
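Inoculum of 1×10^3 to 1×10^4 CFU/mL in RPMI-1640+MOPS, exposed to 11 two-fold serial compound concentrations at 2 percent final DMSO, per CLSI M27-A2. After 2 days at 36° C, wells scored visually for growth to give MIC; tested in duplicate.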

Another test relates to A. fumigatus. As to the kind of experiment: A. fumigatus MIC at 100% growth inhibition (CLSI M38-A2). The test is classed as cell-based, Aspergillus fumigatus. Conditions: for MIC: Aspergillus fumigatus, read-out: Aspergillus fumigatus MIC. How it is done:
A. fumigatus MICs were determined at 100% growth inhibition following CLSI guidelines at a concentration range of 8-0.0078 μg/mL (CLSI M38-A2).

The mark [1] stands for this setting: ATCC 90028, about 50% growth reduction, 2 days at 36° C., range tested 8-0.0078 μg/mL, values given as ranges.
The mark [2] stands for this setting: 100% growth inhibition, range tested 8-0.0078 μg/mL, values given as ranges.

As usually defined, the MIC is the lowest concentration that inhibits growth of the organism. Take `CC(C)c1nc2cc(N3CCN(c4ccc(-c5ccc(C(F)(F)[C@](O)(Cn6cnnn6)c6ccc(F)cc6F)nc5)cc4)CC3)ccc2[nH]1` [Example 69, (R)-2-(2,4-difluorophenyl)-1,1-difluoro-1-(5-(4-(4-(2-isopropyl-1H-benzo [d]imidazol-5-yl)piperazin-1-yl)phenyl)pyridin-2-yl)-3-(1H-tetrazol-1-yl) propan-2-ol]: the figures for the MIC in the test with C. albicans (ATCC 90028) (setting [1]) and in the test with A. fumigatus (setting [2]) were 0.01 to 0.1 µg/mL (≈ 0.0149 to 0.149 µM) and more than 8 µg/mL, respectively.

As to `CCC(c1nc2cc(N3CCN(c4ccc(-c5ccc(C(F)(F)[C@](O)(Cn6cnnn6)c6ccc(F)cc6F)nc5)cc4)CC3)ccc2[nH]1)C(C)O` (stereo partly drawn) [Example 71, 3-(5-(4-(4-(6-((R)-2-(2,4-difluorophenyl)-1,1-difluoro-2-hydroxy-3-(1H-tetrazol-1-yl)propyl)pyridin-3-yl)phenyl)piperazin-1-yl)-1H-benzo [d]imidazol-2-yl)pentan-2-ol], the minimal inhibitory concentration (MIC) with C. albicans (ATCC 90028) (setting [1]) lay in the range of 0.0078 to 0.01 µg/mL (≈ 0.0109 to 0.014 µM); with A. fumigatus (setting [2]), 0.25 to 1 µg/mL (≈ 0.349 to 1.4 µM).

Consider `CC(C)(O)c1ccc(N2CCN(c3ccc(-c4ccc(C(F)(F)[C@](O)(Cn5cnnn5)c5ccc(F)cc5F)nc4)cc3)CC2)cc1` [Example 72, (R)-2-(2,4-difluorophenyl)-1,1-difluoro-1-(5-(4-(4-(4-(2-hydroxypropan-2-yl)phenyl)piperazin-1-yl)phenyl)pyridin-2-yl)-3-(1H-tetrazol-1-yl) propan-2-ol], for which the MIC fell in the range of 0.0078 to 0.01 µg/mL (≈ 0.012 to 0.0154 µM) in the test with C. albicans (ATCC 90028) (setting [1]) and 0.25 to 1 µg/mL (≈ 0.386 to 1.54 µM) in the test with A. fumigatus (setting [2]).

On to `N#Cc1ccc2nc(N3CCN(c4ccc(-c5ccc(C(F)(F)[C@](O)(Cn6cnnn6)c6ccc(F)cc6F)nc5)cc4)CC3)sc2c1` [Example 73, (R)-2-(4-(4-(6-(2-(2,4-difluorophenyl)-1,1-difluoro-2-hydroxy-3-(1H-tetrazol-1-yl)propyl)pyridin-3-yl)phenyl)piperazin-1-yl) benzo [d] thiazole-6-carbonitrile], for which the figures for the MIC in the test on C. albicans (ATCC 90028) (setting [1]) and with A. fumigatus (setting [2]) were 0.0078 to 0.01 µg/mL (≈ 0.0116 to 0.0149 µM) and more than 8 µg/mL, respectively.

Regarding `N#Cc1ccc2nc(N3CCN(c4ccc(-c5ccc(C(F)(F)[C@](O)(Cn6cnnn6)c6ccc(F)cc6F)nc5)cc4)CC3)[nH]c2c1` [Example 74, (R)-2-(4-(4-(6-(2-(2,4-difluorophenyl)-1,1-difluoro-2-hydroxy-3-(1H-tetrazol-1-yl)propyl)pyridin-3-yl)phenyl)piperazin-1-yl)-1H-benzo [d] imidazole-6-carbonitrile], the MIC in the test with C. albicans (ATCC 90028) (setting [1]) is 0.0078 to 0.01 µg/mL (≈ 0.0119 to 0.0153 µM); with A. fumigatus (setting [2]), more than 8 µg/mL.

`CC(O)C(C)n1ncn(-c2ccc(N3CCN(c4ccc(-c5ccc(C(F)(F)[C@](O)(Cn6cnnn6)c6ccc(F)cc6F)nc5)cc4)CC3)cc2)c1=O` (stereo partly drawn) [Example 75, 4-(4-(4-(4-(6-((R)-2-(2,4-difluorophenyl)-1,1-difluoro-2-hydroxy-3-(1H-tetrazol-1-yl)propyl)pyridin-3-yl)phenyl)piperazin-1-yl)phenyl)-2-(3-hydroxybutan-2-yl)-2,4-dihydro-3H-1,2,4-triazol-3-one]: the MIC in the test with C. albicans (ATCC 90028) (setting [1]) was 0.0078 to 0.01 µg/mL (≈ 0.0105 to 0.0134 µM); with A. fumigatus (setting [2]) it was 0.062 to 0.25 µg/mL (≈ 0.0832 to 0.336 µM).

For the compound `N#Cc1ccc2sc(N3CCN(c4ccc(-c5ccc(C(F)(F)[C@](O)(Cn6cnnn6)c6ccc(F)cc6F)nc5)cc4)CC3)nc2c1` [Example 76, (R)-2-(4-(4-(6-(2-(2,4-difluorophenyl)-1,1-difluoro-2-hydroxy-3-(1H-tetrazol-1-yl)propyl)pyridin-3-yl)phenyl)piperazin-1-yl) benzo [d] thiazole-5-carbonitrile], the minimum inhibitory concentration (MIC) was 0.0078 to 0.01 µg/mL (≈ 0.0116 to 0.0149 µM) with C. albicans (ATCC 90028) (setting [1]) and more than 8 µg/mL with A. fumigatus (setting [2]).

With `O[C@@](Cn1cnnn1)(c1ccc(F)cc1F)C(F)(F)c1ccc(-c2ccc(N3CCN(c4ccc5nc(CC(F)(F)F)[nH]c5c4)CC3)cc2)cn1` [Example 77, (R)-2-(2,4-difluorophenyl)-1,1-difluoro-3-(1H-tetrazol-1-yl)-1-(5-(4-(4-(2-(2,2,2-trifluoroethyl)-1H-benzo [d]imidazol-6-yl)piperazin-1-yl)phenyl)pyridin-2-yl) propan-2-ol], the MIC was in the range of 0.01 to 0.1 µg/mL (≈ 0.0141 to 0.141 µM) in the test on C. albicans (ATCC 90028) (setting [1]) and 0.25 to 1 µg/mL (≈ 0.351 to 1.41 µM) in the test on A. fumigatus (setting [2]).

Regarding `CC(C)Cc1nc2ccc(N3CCN(c4ccc(-c5ccc(C(F)(F)[C@](O)(Cn6cnnn6)c6ccc(F)cc6F)nc5)cc4)CC3)cc2[nH]1` [Example 78, (R)-2-(2,4-difluorophenyl)-1,1-difluoro-1-(5-(4-(4-(2-isobutyl-1H-benzo [d]imidazol-6-yl)piperazin-1-yl)phenyl)pyridin-2-yl)-3-(1H-tetrazol-1-yl) propan-2-ol], the figures for the minimal inhibitory concentration (MIC) in the test with C. albicans (ATCC 90028) (setting [1]) and in the test on A. fumigatus (setting [2]) were 0.01 to 0.1 µg/mL (≈ 0.0146 to 0.146 µM) and more than 8 µg/mL, respectively.

As to `Cn1c(N2CCN(c3ccc(-c4ccc(C(F)(F)[C@](O)(Cn5cnnn5)c5ccc(F)cc5F)nc4)cc3)CC2)nc2ccc(C#N)cc21` [Example 79, (R)-2-(4-(4-(6-(2-(2,4-difluorophenyl)-1,1-difluoro-2-hydroxy-3-(1H-tetrazol-1-yl)propyl)pyridin-3-yl)phenyl)piperazin-1-yl)-1-methyl-1H-benzo [d] imidazole-6-carbonitrile], the MIC in the test on C. albicans (ATCC 90028) (setting [1]) fell in the range of 0.0078 to 0.01 µg/mL (≈ 0.0117 to 0.015 µM); with A. fumigatus (setting [2]), 0.25 to 1 µg/mL (≈ 0.374 to 1.5 µM).

On to `Cn1c(N2CCN(c3ccc(-c4ccc(C(F)(F)[C@](O)(Cn5cnnn5)c5ccc(F)cc5F)nc4)cc3)CC2)nc2cc(C#N)ccc21` [Example 80, (R)-2-(4-(4-(6-(2-(2,4-difluorophenyl)-1,1-difluoro-2-hydroxy-3-(1H-tetrazol-1-yl)propyl)pyridin-3-yl)phenyl)piperazin-1-yl)-1-methyl-1H-benzo [d] imidazole-5-carbonitrile], for which the values for the minimum inhibitory concentration (MIC) in the test on C. albicans (ATCC 90028) (setting [1]) and with A. fumigatus (setting [2]) were 0.0078 to 0.01 µg/mL (≈ 0.0117 to 0.015 µM) and more than 8 µg/mL, respectively.

Regarding `CC(C)(C)Cn1ncn(-c2ccc(N3CCN(c4ccc(-c5ccc(C(F)(F)[C@](O)(Cn6cnnn6)c6ccc(F)cc6F)nc5)cc4)CC3)cc2)c1=O` [Example 81, (R)-4-(4-(4-(4-(6-(2-(2,4-difluorophenyl)-1,1-difluoro-2-hydroxy-3-(1H-tetrazol-1-yl)propyl)pyridin-3-yl)phenyl)piperazin-1-yl)phenyl)-2-neopentyl-2,4-dihydro-3H-1,2,4-triazol-3-one], the MIC with C. albicans (ATCC 90028) (setting [1]) fell in the range of 0.0078 to 0.01 µg/mL (≈ 0.0105 to 0.0135 µM); with A. fumigatus (setting [2]) it was 0.25 to 1 µg/mL (≈ 0.337 to 1.35 µM).

Consider `CC[C@@H]([C@H](C)O)n1ncn(-c2ccc(N3CCN(c4ccc(-c5ccc(C(F)(F)[C@](O)(Cn6cnnn6)c6ccc(F)cc6F)nc5)cc4)CC3)cn2)c1=O` [Example 82, 4-(5-(4-(4-(6-((R)-2-(2,4-difluorophenyl)-1,1-difluoro-2-hydroxy-3-(1H-tetrazol-1-yl)propyl)pyridin-3-yl)phenyl)piperazin-1-yl)pyridin-2-yl)-2-((2S,3S)-2-hydroxypentan-3-yl)-2,4-dihydro-3H-1,2,4-triazol-3-one], for which, in the test on C. albicans (ATCC 90028) (setting [1]), the “Candida albicans MIC” value was 0.010 to 0.10 µg/mL. Besides, the “Aspergillus fumigatus MIC” value with A. fumigatus (setting [2]) lay within 0.062 to 0.25 µg/mL.

For the compound `CC[C@@H]([C@H](C)O)N(C)C(=O)c1ccc(N2CCN(c3ccc(-c4ccc(C(F)(F)[C@](O)(Cn5cnnn5)c5ccc(F)cc5F)nc4)cc3)CC2)cc1` [Example 83, 4-(4-(4-(6-((R)-2-(2,4-difluorophenyl)-1,1-difluoro-2-hydroxy-3-(1H-tetrazol-1-yl)propyl)pyridin-3-yl)phenyl)piperazin-1-yl)-N-((2S,3S)-2-hydroxypentan-3-yl)-N-methylbenzamide], the results for the MIC in the test on C. albicans (ATCC 90028) (setting [1]) and in the test on A. fumigatus (setting [2]) were 0.01 to 0.1 µg/mL (≈ 0.0136 to 0.136 µM) and 0.25 to 1 µg/mL (≈ 0.341 to 1.36 µM), respectively.

For the compound `OC(c1cccc(N2CCN(c3ccc(-c4ccc(C(F)(F)[C@](O)(Cn5cnnn5)c5ccc(F)cc5F)nc4)cc3)CC2)c1)C(F)(F)F` (stereo partly drawn) [Example 86, (2R)-2-(2,4-difluorophenyl)-1,1-difluoro-3-(1H-tetrazol-1-yl)-1-(5-(4-(4-(3-(2,2,2-trifluoro-1-hydroxyethyl)phenyl)piperazin-1-yl)phenyl)pyridin-2-yl) propan-2-ol], the MIC in the test with C. albicans (ATCC 90028) (setting [1]) is 0.0078 to 0.01 µg/mL (≈ 0.0113 to 0.0145 µM); with A. fumigatus (setting [2]) it was 0.25 to 1 µg/mL (≈ 0.364 to 1.45 µM).

As to `O=c1n(-c2ccc(N3CCN(c4ccc(-c5ccc(C(F)(F)[C@](O)(Cn6cnnn6)c6ccc(F)cc6F)nc5)cc4)CC3)cn2)cnn1CC(F)(F)F` [Example 87, (R)-4-(5-(4-(4-(6-(2-(2,4-difluorophenyl)-1,1-difluoro-2-hydroxy-3-(1H-tetrazol-1-yl)propyl)pyridin-3-yl)phenyl)piperazin-1-yl)pyridin-2-yl)-2-(2,2,2-trifluoroethyl)-2,4-dihydro-3H-1,2,4-triazol-3-one], the minimal inhibitory concentration (MIC) in the test on C. albicans (ATCC 90028) (setting [1]) was in the range of 0.0078 to 0.01 µg/mL (≈ 0.0103 to 0.0132 µM); with A. fumigatus (setting [2]), 0.062 to 0.25 µg/mL (≈ 0.082 to 0.331 µM).

Take `NC(CC(F)(F)F)C(=O)Nc1ccc(N2CCN(c3ccc(-c4ccc(C(F)(F)[C@](O)(Cn5cnnn5)c5ccc(F)cc5F)nc4)cc3)CC2)cc1` (stereo partly drawn) [Example 88, 2-amino-N-(4-(4-(4-(6-((R)-2-(2,4-difluorophenyl)-1,1-difluoro-2-hydroxy-3-(1H-tetrazol-1-yl)propyl)pyridin-3-yl)phenyl)piperazin-1-yl)phenyl)-4,4,4-trifluorobutanamide]: the MIC in the test on C. albicans (ATCC 90028) was 0.01 to 0.1 µg/mL (≈ 0.0134 to 0.134 µM); with A. fumigatus, more than 8 µg/mL.

`CCC(C(=O)Nc1ccc(N2CCN(c3ccc(-c4ccc(C(F)(F)[C@](O)(Cn5cnnn5)c5ccc(F)cc5F)nc4)cc3)CC2)cc1)C(C)O` (stereo partly drawn) [Example 89, N-(4-(4-(4-(6-((R)-2-(2,4-difluorophenyl)-1,1-difluoro-2-hydroxy-3-(1H-tetrazol-1-yl)propyl)pyridin-3-yl)phenyl)piperazin-1-yl)phenyl)-2-ethyl-3-hydroxybutanamide]: the MIC with C. albicans (ATCC 90028) (setting [1]) fell in the range of 0.01 to 0.1 µg/mL (≈ 0.0139 to 0.139 µM); in the test on A. fumigatus (setting [2]), 0.25 to 1 µg/mL (≈ 0.348 to 1.39 µM).

Consider `CC(C)(C)Cc1nc2ccc(N3CCN(c4ccc(-c5ccc(C(F)(F)[C@](O)(Cn6cnnn6)c6ccc(F)cc6F)nc5)cc4)CC3)cc2[nH]1` [Example 90, (R)-2-(2,4-difluorophenyl)-1,1-difluoro-1-(5-(4-(4-(2-neopentyl-1H-benzo [d]imidazol-6-yl)piperazin-1-yl)phenyl)pyridin-2-yl)-3-(1H-tetrazol-1-yl) propan-2-ol], for which the results for the minimal inhibitory concentration (MIC) with C. albicans (ATCC 90028) (setting [1]) and in the test with A. fumigatus (setting [2]) were 0.0078 to 0.01 µg/mL (≈ 0.0111 to 0.0143 µM) and more than 8 µg/mL, respectively.
